Target: T1, human CXCR3 (N-delta 4) (Homo sapiens, UniProt P49682)
T1 construct: CD8 leader (N); Flag tag; expressed in transfected cells; membrane preparation
T1 sequence (P49682 5-368 limits assumed): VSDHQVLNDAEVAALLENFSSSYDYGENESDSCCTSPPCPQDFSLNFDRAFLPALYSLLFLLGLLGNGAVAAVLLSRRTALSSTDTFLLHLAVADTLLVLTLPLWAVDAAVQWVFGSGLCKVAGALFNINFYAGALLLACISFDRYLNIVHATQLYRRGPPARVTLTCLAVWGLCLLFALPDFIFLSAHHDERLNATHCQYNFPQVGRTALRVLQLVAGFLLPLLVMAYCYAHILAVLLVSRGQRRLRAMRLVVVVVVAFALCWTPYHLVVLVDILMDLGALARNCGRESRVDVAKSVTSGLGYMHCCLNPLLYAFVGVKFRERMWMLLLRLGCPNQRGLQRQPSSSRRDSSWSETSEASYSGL
Experiment: Human CXCR3 (N-delta 4) scintillation proximity assay (SPA), [125I] IP-10 binding to Ba/F3-hCXCR3 membranes
Details: IC50 rating; [125I] IP-10 displacement, human CXCR3; read-out: IC50
Method in brief: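 Membranes from Ba/F3 cells expressing Flag-tagged hCXCR3 (N-delta 4), 2 μg/point, precoupled to WGA SPA beads. Binding of 25 pM [125I] IP-10 measured with titrated compounds, 3 hr at room temperature, in HEPES buffer with CaCl2, MgCl2, NaCl and 1.0% BSA; bound tracer read by scintillation counting.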

Structure (SMILES)	IC50
CC[C@H]1CN(c2ncc([N+](=O)[O-])cc2Cl)CCN1C1CCN(Cc2ccc(Cl)cc2F)CC1 [Compound 212]	25 to 100 nM
CC[C@H]1CN(c2ncc(N(C)C)cc2Cl)CCN1C1CCN(C(CO)c2ccc(Cl)cc2)CC1 (some centres unmarked) [Compound 213]	25 to 100 nM
CC[C@H]1CN(c2ncc(N/C(=N/C#N)NCCO)cc2Cl)CCN1C1CCN(Cc2ccc(Cl)cc2F)CC1 [Compound 214]	> 100 nM
CC[C@H]1CN(c2ncc([N+](=O)[O-])cc2Cl)CCN1C1CCN(Cc2ccc(Cl)cc2-c2nnc[nH]2)CC1 [Compound 215]	> 100 nM
CC[C@H]1CN(c2ccc([N+](=O)[O-])cc2Cl)CCN1C1CCN(Cc2ccc(Cl)cc2)CC1 [Compound 216]	> 100 nM
C[C@@H]1CN(C2CCN(Cc3ccc(Cl)cc3F)CC2)[C@@H](C)CN1c1ncc([N+](=O)[O-])cc1Cl [Compound 217]	> 100 nM
C[C@H]1CN(c2ncc(N)cc2Cl)CCN1C1CCN(Cc2ccc(Cl)cc2)CC1 [Compound 218]	> 100 nM
CC[C@H]1CN(c2nc(N)c(N)nc2Cl)CCN1C1CCN(Cc2ccc(Cl)cc2F)CC1 [Compound 219]	> 100 nM
CC[C@H]1CN(c2cc(N)c([N+](=O)[O-])cc2Cl)CCN1C1CCN(Cc2ccc(Cl)cc2F)CC1 [Compound 220]	> 100 nM
CC[C@H]1CN(c2ncc(NC(=N)N)cc2Cl)CCN1C1CCN(Cc2ccc(Cl)cc2F)CC1 [Compound 221]	> 100 nM
CC[C@H]1CN(c2ncc(-n3cccc3)cc2Cl)CCN1C1CCN(Cc2ccc(Cl)cc2F)CC1 [Compound 222]	> 100 nM
C[C@H]1CN(c2ncc(Nc3ncccn3)cc2Cl)CCN1C1CCN(Cc2ccc(Cl)cc2F)CC1 [Compound 223]	> 100 nM
C[C@H]1CN(c2ncc(N)cc2Cl)CCN1C1CCN(Cc2ccc(Cl)cc2F)CC1 [Compound 224]	> 100 nM
C[C@H]1CN(c2ncc(-n3cccn3)cc2Cl)CCN1C1CCN(Cc2ccc(Cl)cc2F)CC1 [Compound 225]	> 100 nM
CC[C@H]1CN(c2cc(N)c(N)cc2Cl)CCN1C1CCN(Cc2ccc(Cl)cc2F)CC1 [Compound 226]	> 100 nM
C[C@H]1CN(c2ncc([N+](=O)[O-])cc2Cl)CCN1C1CCN(Cc2ccc(Cl)cc2F)CC1 [Compound 227]	> 100 nM
C[C@H]1CN(c2nc(Cl)c(N)cc2Cl)CCN1C1CCN(Cc2ccc(Cl)cc2F)CC1 [Compound 228]	> 100 nM
CC[C@H]1CN(c2ncc(-n3ccnc3)cc2Cl)CCN1C1CCN([C@H](C(=O)OC)c2ccc(Cl)cc2)CC1 [Compound 229]	> 100 nM
CC[C@H]1CN(c2ncc([N+](=O)[O-])cc2Cl)CCN1C1CCN(Cc2ccc(Cl)cc2-c2nnc(Br)[nH]2)CC1 [Compound 230]	> 100 nM
C[C@H]1CN(c2ncc(NN)cc2Cl)CCN1C1CCN(Cc2ccc(Cl)cc2F)CC1 [Compound 231]	> 100 nM

Structure (SMILES)	IC50
C[C@@H]1CN(C2CCN(Cc3ccc(Cl)cc3F)CC2)[C@@H](C)CN1c1ncc(N)cc1N [Compound 233]	> 100 nM
CC[C@H]1CN(c2ncc(NC3=NS(=O)(=O)N=C3NC3CC3)cc2Cl)CCN1C1CCN(Cc2ccc(OC(F)(F)F)cc2)CC1 [Compound 234]	< 25 nM
CC[C@H]1CN(c2ncc(NC3=NS(=O)(=O)N=C3NC3CC3)cc2Cl)CCN1C1CCN(Cc2ccc(Cl)cc2F)CC1 [Compound 235]	< 25 nM
CC[C@H]1CN(c2ncc(NC3=NS(=O)(=O)N=C3NC3CC3)cc2Cl)CCN1C1CCN(Cc2ccc(Cl)cc2C(=N)NO)CC1 [Compound 236]	< 25 nM
CC[C@H]1CN(c2ncc(NC3=NS(=O)(=O)N=C3N(C)C)cc2Cl)CCN1C1CCN(Cc2ccc(Cl)cc2F)CC1 [Compound 237]	< 25 nM
CC[C@H]1CN(c2ncc(NC3=NS(=O)(=O)N=C3NCCO)cc2Cl)CCN1C1CCN(Cc2ccc(Cl)cc2F)CC1 [Compound 238]	< 25 nM
CC[C@H]1CN(c2ncc(NC3=NS(=O)(=O)N=C3NCCO)cc2Cl)CCN1C1CCN(Cc2ccc(OC(F)(F)F)cc2)CC1 [Compound 239]	< 25 nM
CC[C@H]1CN(c2ncc(NC3=NS(=O)(=O)N=C3NC3CC3)cc2Cl)CCN1C1CCN([C@H](CO)c2ccc(Cl)cc2)CC1 [Compound 240]	< 25 nM
CCCCNC1=NS(=O)(=O)N=C1Nc1cnc(N2CCN(C3CCN(Cc4ccc(Cl)cc4C(=N)NO)CC3)[C@@H](CC)C2)c(Cl)c1 [Compound 241]	< 25 nM
CC[C@H]1CN(c2ncc(NC3=NS(=O)(=O)N=C3NC3CC3)cc2Cl)CCN1C1CCN(Cc2ccc(Cl)c(F)c2)CC1 [Compound 242]	< 25 nM
CC[C@H]1CN(c2ncc(NC3=NS(=O)(=O)N=C3NC(C)C)cc2Cl)CCN1C1CCN(Cc2ccc(Cl)cc2F)CC1 [Compound 243]	< 25 nM
CC[C@H]1CN(c2ncc(NC3=NS(=O)(=O)N=C3NC)cc2Cl)CCN1C1CCN(Cc2ccc(Cl)cc2C(=N)NO)CC1 [Compound 244]	< 25 nM
CC[C@H]1CN(c2ncc(NC3=NS(=O)(=O)N=C3NC3CC3)cc2Cl)CCN1C1CCN(Cc2ccc(C(F)(F)F)cc2)CC1 [Compound 245]	< 25 nM
CC[C@H]1CN(c2ncc(NC3=NS(=O)(=O)N=C3NCC3CC3)cc2Cl)CCN1C1CCN(Cc2ccc(Cl)cc2F)CC1 [Compound 246]	< 25 nM
CC[C@H]1CN(c2ncc(NC3=NS(=O)(=O)N=C3NC3CCC3)cc2Cl)CCN1C1CCN(Cc2ccc(Cl)cc2F)CC1 [Compound 247]	< 25 nM
CC[C@H]1CN(c2ncc(NC3=NS(=O)(=O)N=C3NC3CC3)cc2Cl)CCN1C1CCN(Cc2ccc(C#N)cc2)CC1 [Compound 248]	< 25 nM
CC[C@H]1CN(c2ncc(NC3=NS(=O)(=O)N=C3NC3CC3)cc2Cl)CCN1C1CCN(Cc2ccc(Cl)cc2-c2ncon2)CC1 [Compound 249]	< 25 nM
CC[C@H]1CN(c2ncc(NC3=NS(=O)(=O)N=C3NC3CC3)cc2Cl)CCN1C1CCN(Cc2ccc(Cl)cc2-c2nnc[nH]2)CC1 [Compound 250]	< 25 nM
CC[C@H]1CN(c2ncc(NC3=NS(=O)(=O)N=C3NC3CC3)cc2Cl)CCN1C1CCN(Cc2ccc(F)c(F)c2)CC1 [Compound 251]	< 25 nM
CC[C@H]1CN(c2ncc(NC3=NS(=O)(=O)N=C3NCC(F)(F)F)cc2Cl)CCN1C1CCN(Cc2ccc(Cl)cc2F)CC1 [Compound 252]	< 25 nM

Structure (SMILES)	IC50
CC[C@H]1CN(c2ncc(NC3=NS(=O)(=O)N=C3NC[C@H](C)O)cc2Cl)CCN1C1CCN(Cc2ccc(Cl)cc2F)CC1 [Compound 253]	< 25 nM
CC[C@H]1CN(c2ncc(NC3=NS(=O)(=O)N=C3N3CCC3)cc2Cl)CCN1C1CCN(Cc2ccc(Cl)cc2F)CC1 [Compound 254]	< 25 nM
CC[C@H]1CN(c2ncc(NC3=NS(=O)(=O)N=C3NC(C)(C)C)cc2Cl)CCN1C1CCN(Cc2ccc(Cl)cc2F)CC1 [Compound 255]	25 to 100 nM
CC[C@H]1CN(c2ncc(NC3=NS(=O)(=O)N=C3N(C)C)cc2Cl)CCN1C1CCN(Cc2ccc(Cl)cc2C(=N)NO)CC1 [Compound 256]	25 to 100 nM
CC[C@H]1CN(c2ncc(NC3=NS(=O)(=O)N=C3NCCO)cc2Cl)CCN1C1CCN(Cc2ccc(F)c(F)c2)CC1 [Compound 257]	25 to 100 nM
CC[C@H]1CN(c2ncc(NC3=NS(=O)(=O)N=C3NC[C@@H](C)O)cc2Cl)CCN1C1CCN(Cc2ccc(Cl)cc2F)CC1 [Compound 258]	25 to 100 nM
CC[C@H]1CN(c2ncc(NC3=NS(=O)(=O)N=C3N)cc2Cl)CCN1C1CCN(Cc2ccc(Cl)cc2F)CC1 [Compound 259]	25 to 100 nM
CC[C@H]1CN(c2ncc(NC3=NS(=O)(=O)N=C3NC3CC3)cc2Cl)CCN1C1CCN(Cc2ccc(Cl)cc2C#N)CC1 [Compound 260]	25 to 100 nM
CC[C@H]1CN(c2ncc(NC3=NS(=O)(=O)N=C3N3CCOCC3)cc2Cl)CCN1C1CCN(Cc2ccc(OC(F)(F)F)cc2)CC1 [Compound 261]	25 to 100 nM
CC[C@H]1CN(c2ncc(NC3=NS(=O)(=O)N=C3N)cc2Cl)CCN1C1CCN(Cc2ccc(OC(F)(F)F)cc2)CC1 [Compound 262]	25 to 100 nM
CC[C@H]1CN(c2ncc(NC3=NS(=O)(=O)N=C3NC)cc2Cl)CCN1C1CCN(Cc2ccc(Cl)cc2C#N)CC1 [Compound 263]	25 to 100 nM
CC[C@H]1CN(c2ncc(NC3=NS(=O)(=O)N=C3NCC(F)(F)F)cc2Cl)CCN1C1CCN(Cc2ccc(F)c(F)c2)CC1 [Compound 264]	> 100 nM
CC[C@H]1CN(c2ncc(NC3=NS(=O)(=O)N=C3N)cc2Cl)CCN1C1CCN(Cc2ccc(Cl)cc2-c2ncon2)CC1 [Compound 265]	> 100 nM
CC[C@H]1CN(c2ncc(NC3=NS(=O)(=O)N=C3NC3CC3)cc2Cl)CCN1C1CCN(Cc2ccc(C#N)nc2)CC1 [Compound 266]	> 100 nM
CC[C@H]1CN(c2ncc(NC3=NS(=O)(=O)N=C3NC(C)(C)C)cc2Cl)CCN1C1CCN(Cc2ccc(Cl)cc2C#N)CC1 [Compound 267]	> 100 nM
CC[C@H]1CN(c2ncc(NC3=NS(=O)(=O)N=C3N3CCC3)cc2Cl)CCN1C1CCN(Cc2ccc(F)c(F)c2)CC1 [Compound 268]	> 100 nM
CC[C@H]1CN(c2ncc(NC3=NS(=O)(=O)N=C3N3CCOCC3)cc2Cl)CCN1C1CCN(Cc2ccc(F)c(F)c2)CC1 [Compound 269]	> 100 nM
CC[C@H]1CN(c2ncc(NC3=NS(=O)(=O)N=C3NC3CC3)cc2Cl)CCN1C1CCN(Cc2ccc(Cl)cc2-c2nnc(Br)[nH]2)CC1 [Compound 270]	> 100 nM
CC[C@H]1CN(c2ncc(NC3=NS(=O)(=O)N=C3N(C)C)cc2Cl)CCN1C1CCN(Cc2ccc(OC(F)(F)F)cc2)CC1 [Compound 271]	> 100 nM

From patent publication US7566718B2, “Amine-linked pyridyl and phenyl substituted piperazine-piperidines with CXCR3 antagonist activity” (Schering Corporation, priority 2005, dated 2009)
